Results on 21 compounds are retold here after patent US10301280B2 (Plexxikon Inc., priority 2012, dated 2019).

The structures appear in SMILES notation.

As a reminder, the IC50 is the midpoint of a concentration-inhibition curve. Read a low IC50 as greater potency in that assay.

Chain of c-kit kinase (P10721 26-976): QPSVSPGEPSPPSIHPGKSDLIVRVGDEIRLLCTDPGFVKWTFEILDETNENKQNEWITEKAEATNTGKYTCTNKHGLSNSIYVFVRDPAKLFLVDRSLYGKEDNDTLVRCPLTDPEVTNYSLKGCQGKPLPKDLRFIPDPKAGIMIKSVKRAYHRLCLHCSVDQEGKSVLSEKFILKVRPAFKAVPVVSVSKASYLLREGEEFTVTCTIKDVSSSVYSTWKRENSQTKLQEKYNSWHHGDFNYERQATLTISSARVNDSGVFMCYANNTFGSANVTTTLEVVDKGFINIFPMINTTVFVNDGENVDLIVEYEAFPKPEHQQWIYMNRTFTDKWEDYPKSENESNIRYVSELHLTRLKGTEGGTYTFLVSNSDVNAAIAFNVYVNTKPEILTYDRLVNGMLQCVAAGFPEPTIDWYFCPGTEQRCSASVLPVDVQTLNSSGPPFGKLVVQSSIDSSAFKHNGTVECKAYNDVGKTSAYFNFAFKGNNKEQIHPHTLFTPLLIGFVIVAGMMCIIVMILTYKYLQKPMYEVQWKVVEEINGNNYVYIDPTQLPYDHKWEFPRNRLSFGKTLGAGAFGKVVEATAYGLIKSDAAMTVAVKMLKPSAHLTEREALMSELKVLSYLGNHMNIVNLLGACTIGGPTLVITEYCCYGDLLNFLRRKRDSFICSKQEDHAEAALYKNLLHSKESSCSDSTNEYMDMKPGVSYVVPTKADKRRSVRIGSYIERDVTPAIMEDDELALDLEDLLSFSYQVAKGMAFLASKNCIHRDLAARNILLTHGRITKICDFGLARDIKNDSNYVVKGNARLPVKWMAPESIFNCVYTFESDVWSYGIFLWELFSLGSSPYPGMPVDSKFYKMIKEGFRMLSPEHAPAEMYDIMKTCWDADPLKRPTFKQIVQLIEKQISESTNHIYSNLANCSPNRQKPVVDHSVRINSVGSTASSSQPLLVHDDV

This assay has as its target c-kit kinase (Homo sapiens (Human), UniProt P10721). Briefly: c-Kit biochemical assay (AlphaScreen). Conditions: c-kit biochemical inhibitory activity. In short, it runs like this:
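AlphaScreen of biotin-(E4Y)3 (100 nM) phosphorylation by c-kit (0.1 ng) in HEPES pH 7.2, Mg/Mn, 10 μM ATP, 5% DMSO, 1 h at room temperature; variant uses 100 μM ATP, 30 nM biotin-(E4Y)10, 1 ng enzyme. PY20 acceptor/streptavidin donor signal versus 8-point concentration gives IC50.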
`O=C(Nc1cnc2[nH]c(-c3ccccc3)cc2c1)c1[nH]ncc1Br` [P-2005, 4-bromo-N-(2-phenyl-1H-pyrrolo[2,3-b]pyridin-5-yl)-1H-pyrazole-5-carboxamide] returned a concentration for half-maximal inhibition (IC50) of 1 to 10 µM.
On to `Cc1n[nH]c(C(=O)Nc2cnc3[nH]c(-c4ccccc4)cc3c2)c1C` [P-2007, 3,4-dimethyl-N-(2-phenyl-1H-pyrrolo[2,3-b]pyridin-5-yl)-1H-pyrazole-5-carboxamide], for which the IC50 was 0.0001 to 1 µM.
As for `Cc1[nH]nc(C(=O)Nc2cnc3[nH]c(-c4ccc(N5CCOCC5)cc4)cc3c2)c1C` [P-2059, 4,5-dimethyl-N-[2-(4-morpholinophenyl)-1H-pyrrolo[2,3-b]pyridin-5-yl]-1H-pyrazole-3-carboxamide], the figure is 0.0001 to 1 µM; as for `Cc1n[nH]c(C(=O)Nc2cnc3[nH]c(C4=CCN(C(=O)C5CC5)C4)cc3c2)c1Cl` [P-2060, 4-chloro-N-[2-[1-(cyclopropanecarbonyl)-2,5-dihydropyrrol-3-yl]-1H-pyrrolo[2,3-b]pyridin-5-yl]-3-methyl-1H-pyrazole-5-carboxamide], 0.0001 to 1 µM; as for `CC(=O)N1CC=C(c2cc3cc(NC(=O)c4[nH]nc(C)c4Cl)cnc3[nH]2)CC1` [P-2061, N-[2-(1-acetyl-3,6-dihydro-2H-pyridin-4-yl)-1H-pyrrolo[2,3-b]pyridin-5-yl]-4-chloro-3-methyl-1H-pyrazole-5-carboxamide], 0.0001 to 1 µM.
Regarding `Cc1n[nH]c(C(=O)Nc2cnc3[nH]c(C4=CCN(C(=O)N5CCOCC5)C4)cc3c2)c1Cl` [P-2062, 4-chloro-3-methyl-N-[2-[1-(morpholine-4-carbonyl)-2,5-dihydropyrrol-3-yl]-1H-pyrrolo[2,3-b]pyridin-5-yl]-1H-pyrazole-5-carboxamide], the IC50 was 0.0001 to 1 µM.
As for `Cc1n[nH]c(C(=O)Nc2cnc3[nH]c(-c4cccc(N(C)C)c4)cc3c2)c1C` [P-2064, N-[2-[3-(dimethylamino)phenyl]-1H-pyrrolo[2,3-b]pyridin-5-yl]-3,4-dimethyl-1H-pyrazole-5-carboxamide], the figure is 0.0001 to 1 µM; as for `Cc1n[nH]c(C(=O)Nc2cnc3[nH]c(-c4c(C)noc4C)cc3c2)c1C` [P-2065, N-[2-(3,5-dimethylisoxazol-4-yl)-1H-pyrrolo[2,3-b]pyridin-5-yl]-3,4-dimethyl-1H-pyrazole-5-carboxamide], 1 to 10 µM; as for `CNC(=O)c1ccc(-c2cc3cc(NC(=O)c4[nH]nc(C)c4C)cnc3[nH]2)cc1` [P-2067, 3,4-dimethyl-N-[2-[4-(methylcarbamoyl)phenyl]-1H-pyrrolo[2,3-b]pyridin-5-yl]-1H-pyrazole-5-carboxamide], 1 to 10 µM.
The value for `Cc1[nH]nc(C(=O)Nc2cnc3[nH]c(-c4ccnc(N5CCN(C)CC5)c4)cc3c2)c1C` [P-2069, 4,5-dimethyl-N-[2-[2-(4-methylpiperazin-1-yl)-4-pyridyl]-1H-pyrrolo[2,3-b]pyridin-5-yl]-1H-pyrazole-3-carboxamide] was 1 to 10 µM; that for `Cc1[nH]nc(C(=O)Nc2cnc3[nH]c(-c4cccc(N5CCOCC5)c4)cc3c2)c1C` [P-2070, 4,5-dimethyl-N-[2-(3-morpholinophenyl)-1H-pyrrolo[2,3-b]pyridin-5-yl]-1H-pyrazole-3-carboxamide] was 1 to 10 µM.
The value for `Cc1n[nH]c(C(=O)Nc2cnc3[nH]c(C4=CCN(C(=O)CN5CCOCC5)CC4)cc3c2)c1C` [P-2073, 3,4-dimethyl-N-[2-[1-(2-morpholinoacetyl)-3,6-dihydro-2H-pyridin-4-yl]-1H-pyrrolo[2,3-b]pyridin-5-yl]-1H-pyrazole-5-carboxamide] was 1 to 10 µM; that for `Cc1n[nH]c(C(=O)Nc2cnc3[nH]c(C4=CCN(C(=O)C(O)CO)CC4)cc3c2)c1C` (stereo not drawn) [P-2074, N-[2-[1-(2,3-dihydroxypropanoyl)-3,6-dihydro-2H-pyridin-4-yl]-1H-pyrrolo[2,3-b]pyridin-5-yl]-3,4-dimethyl-1H-pyrazole-5-carboxamide] was 0.0001 to 1 µM.
On to `Cc1n[nH]c(C(=O)Nc2cnc3[nH]c(-c4cccc(N5CCCC5)c4)cc3c2)c1C` [P-2079, 3,4-dimethyl-N-[2-(3-pyrrolidin-1-ylphenyl)-1H-pyrrolo[2,3-b]pyridin-5-yl]-1H-pyrazole-5-carboxamide], for which the half-inhibitory concentration (IC50) lay in the range of 1 to 10 µM.
As for `Cc1n[nH]c(C(=O)Nc2cnc3[nH]c(C4=CCC(N)CC4)cc3c2)c1C` (stereo not drawn) [P-2080, N-[2-(4-aminocyclohexen-1-yl)-1H-pyrrolo[2,3-b]pyridin-5-yl]-3,4-dimethyl-1H-pyrazole-5-carboxamide], the figure is 1 to 10 µM.
As for `Cc1n[nH]c(C(=O)Nc2cnc3[nH]c(-c4ccc(C#N)c(N5CCOCC5)c4)cc3c2)c1C` [P-2081, N-[2-(4-cyano-3-morpholino-phenyl)-1H-pyrrolo[2,3-b]pyridin-5-yl]-3,4-dimethyl-1H-pyrazole-5-carboxamide], the figure is 1 to 10 µM; as for `Cc1n[nH]c(C(=O)Nc2cnc3[nH]c(-n4cccn4)cc3c2)c1C` [P-2112, 3,4-dimethyl-N-(2-pyrazol-1-yl-1H-pyrrolo[2,3-b]pyridin-5-yl)-1H-pyrazole-5-carboxamide], 1 to 10 µM.
`Cc1cc(C(=O)Nc2cnc3[nH]c(-n4cccn4)cc3c2)[nH]n1` [P-2116, 3-methyl-N-(2-pyrazol-1-yl-1H-pyrrolo[2,3-b]pyridin-5-yl)-1H-pyrazole-5-carboxamide] displayed an IC50 of 10 to 200 µM.
As for `Cc1n[nH]c(C(=O)Nc2cnc3[nH]c(-c4cccc(N5CCN(C(=O)C6CC6)CC5)c4)cc3c2)c1C` [P-2118, N-[2-[3-[4-(cyclopropanecarbonyl)piperazin-1-yl]phenyl]-1H-pyrrolo[2,3-b]pyridin-5-yl]-3,4-dimethyl-1H-pyrazole-5-carboxamide], the figure is 10 to 200 µM; as for `Cc1n[nH]c(C(=O)Nc2cnc3sc(-c4ccccc4)nc3c2)c1C` [P-2144, 3,4-dimethyl-N-(2-phenylthiazolo[5,4-b]pyridin-6-yl)-1H-pyrazole-5-carboxamide], 1 to 10 µM; as for `Cc1n[nH]c(C(=O)Nc2cnc3[nH]c(-c4ccc(C(=O)NC5CC5)cc4)cc3c2)c1C` [P-2148, N-[2-[4-(cyclopropylcarbamoyl)phenyl]-1H-pyrrolo[2,3-b]pyridin-5-yl]-3,4-dimethyl-1H-pyrazole-5-carboxamide], 0.0001 to 1 µM.
